Results: US20260207578A1, “COMPOUND BASED ON SULFUR/OXYGEN SUBSTITUTED GLUTARIMIDE-BASED ISOINDOLINONE SKELETON AND USE THEREOF” (Gluetacs Therapeutics (Shanghai) Co., LTD., priority 2022, published 2026)

Tests used:
[1] = biological target: T1, Wee1 (Homo sapiens, UniProt P30291+Q96SW2); test: Western-blot assay, substrate protein in hPBMCs; assay type: cell-based; conditions: hPBMC cells, 24 hours, tested at 50 nM and 500 nM, table does not say which
T1 construct: endogenous in cells; host or cells: human PBMCs (Milecell Biotechnologies)
Summary of the method: (§1)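 Protein levels read by Western blot of lysates from human PBMCs (1×10^6 cells/mL) treated 24 h. Percent remaining is target band over loading-control band, normalised to DMSO-treated cells; DC50 is the concentration halving DMSO-control band intensity, estimated by curve fit.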

[2] = biological target: T2, IKZF2 (Homo sapiens, UniProt Q96SW2+Q9UKS7); test: Western-blot assay, substrate protein in hPBMCs; assay type: cell-based; conditions: hPBMC cells, 24 hours, tested at 50 nM and 500 nM, table does not say which
T2 construct: endogenous in cells; host or cells: human PBMCs (Milecell Biotechnologies)
Summary of the method: as §1

[3] = biological target: T3, CK1α (Homo sapiens, UniProt P48729+Q96SW2); test: Western-blot assay, substrate protein in hPBMCs; assay type: cell-based; conditions: hPBMC cells, 24 hours, tested at 50 nM and 500 nM, table does not say which
T3 construct: endogenous in cells; host or cells: human PBMCs (Milecell Biotechnologies)
Summary of the method: as §1

[4] = biological target: T4, GSPT1 (Homo sapiens, UniProt P15170+Q96SW2); test: Western-blot assay, substrate protein in hPBMCs; assay type: cell-based; conditions: hPBMC cells, 24 hours, tested at 50 nM and 500 nM, table does not say which
T4 construct: endogenous in cells; host or cells: human PBMCs (Milecell Biotechnologies)
Summary of the method: as §1

[5] = biological target: T5, human Cereblon WT GST-tagged protein (Homo sapiens, UniProt Q96SW2); test: CRBN-binding affinity, HTRF (CEREBLON BINDING kit); conditions: displacement of Thalidomide-Re reagent, 3 hours at room temperature
T5 construct: purchased CISBIO 64BDCRBNPEH
Summary of the method: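 HTRF competition format: compound, GST-tagged wild-type human Cereblon, Thalidomide-Re tracer and GST Eu antibody were combined in PROTAC binding buffer. Binding was derived from emission at 620 nm relative to blank and solvent control wells.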

[6] = biological target: T6, IKZF3 (Homo sapiens, UniProt Q96SW2+Q9UKT9); test: Western-blot assay, substrate protein in hPBMCs; assay type: cell-based; conditions: hPBMC cells, 24 hours, tested at 50 nM and 500 nM, table does not say which
T6 construct: endogenous in cells; host or cells: human PBMCs (Milecell Biotechnologies)
Summary of the method: (§2)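 hPBMCs (1×10^6 cells/mL) exposed 24 h to compound at 50 nM and 500 nM, lysed, and probed by Western blot. Band grayscale normalized to internal control gives % protein remaining versus DMSO; DC50 from concentration-response fit at half DMSO band intensity.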

[7] = biological target: T7, IKZF1 (Homo sapiens, UniProt Q13422+Q96SW2); test: Western-blot assay, substrate protein in hPBMCs; assay type: cell-based; conditions: hPBMC cells, 24 hours, tested at 50 nM and 500 nM, table does not say which
T7 construct: endogenous in cells; host or cells: human PBMCs (Milecell Biotechnologies)
Summary of the method: as §2

[8] = tested on: MV-4-11; test: Half inhibitory concentration (IC50) against tumor cells, Cell Counting Kit-8; assay type: cell-based; conditions: Homo sapiens, MV4-11, CCK-8, 96 h treatment, read-out: inhibitory activity (IC50, nM) against tumor cells proliferation
Experimental: The tumor cells used herein were cultured in a cell culture medium listed in table A at 37° C. in an incubator with 5% CO2.
After the cells were treated with the compounds of the present disclosure for a period of time, the cell viability detection reagent was added to the culture medium for cell viability assessment according to the instructions provided with the CCK-8 kit. […] The growth inhibition of the compounds of the present disclosure on cells was plotted by Prism Graphpad software, and the IC50 values of the compounds of the present disclosure were calculated therefrom.

T6 sequence (Q9UKT9 whole entry): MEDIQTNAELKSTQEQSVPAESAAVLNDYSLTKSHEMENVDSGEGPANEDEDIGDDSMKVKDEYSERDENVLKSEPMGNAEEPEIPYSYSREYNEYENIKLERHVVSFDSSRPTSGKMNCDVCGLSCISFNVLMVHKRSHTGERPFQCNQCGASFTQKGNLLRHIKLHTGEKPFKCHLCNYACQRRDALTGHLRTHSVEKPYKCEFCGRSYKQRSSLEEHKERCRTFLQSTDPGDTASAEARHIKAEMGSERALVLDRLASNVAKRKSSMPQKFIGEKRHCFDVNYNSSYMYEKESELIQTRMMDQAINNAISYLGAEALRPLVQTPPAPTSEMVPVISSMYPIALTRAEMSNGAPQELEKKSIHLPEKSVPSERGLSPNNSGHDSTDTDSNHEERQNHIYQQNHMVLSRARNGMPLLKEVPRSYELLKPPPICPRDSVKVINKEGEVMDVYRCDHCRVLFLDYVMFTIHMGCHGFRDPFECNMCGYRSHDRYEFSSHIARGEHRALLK
T6 sequence (Q96SW2 whole entry): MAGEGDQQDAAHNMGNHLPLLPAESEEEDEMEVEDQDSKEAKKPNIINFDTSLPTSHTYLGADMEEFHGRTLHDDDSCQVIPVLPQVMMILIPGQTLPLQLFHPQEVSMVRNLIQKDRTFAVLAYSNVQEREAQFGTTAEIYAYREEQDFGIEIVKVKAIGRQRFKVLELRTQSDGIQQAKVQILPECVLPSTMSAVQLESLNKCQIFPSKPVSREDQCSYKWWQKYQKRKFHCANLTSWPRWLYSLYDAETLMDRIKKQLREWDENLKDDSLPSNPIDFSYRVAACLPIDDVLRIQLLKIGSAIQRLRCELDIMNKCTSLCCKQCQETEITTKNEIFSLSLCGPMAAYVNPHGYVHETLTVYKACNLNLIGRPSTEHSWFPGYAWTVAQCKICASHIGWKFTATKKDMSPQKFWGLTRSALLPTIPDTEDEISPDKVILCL
T6 sequence (Q16531 whole entry partner): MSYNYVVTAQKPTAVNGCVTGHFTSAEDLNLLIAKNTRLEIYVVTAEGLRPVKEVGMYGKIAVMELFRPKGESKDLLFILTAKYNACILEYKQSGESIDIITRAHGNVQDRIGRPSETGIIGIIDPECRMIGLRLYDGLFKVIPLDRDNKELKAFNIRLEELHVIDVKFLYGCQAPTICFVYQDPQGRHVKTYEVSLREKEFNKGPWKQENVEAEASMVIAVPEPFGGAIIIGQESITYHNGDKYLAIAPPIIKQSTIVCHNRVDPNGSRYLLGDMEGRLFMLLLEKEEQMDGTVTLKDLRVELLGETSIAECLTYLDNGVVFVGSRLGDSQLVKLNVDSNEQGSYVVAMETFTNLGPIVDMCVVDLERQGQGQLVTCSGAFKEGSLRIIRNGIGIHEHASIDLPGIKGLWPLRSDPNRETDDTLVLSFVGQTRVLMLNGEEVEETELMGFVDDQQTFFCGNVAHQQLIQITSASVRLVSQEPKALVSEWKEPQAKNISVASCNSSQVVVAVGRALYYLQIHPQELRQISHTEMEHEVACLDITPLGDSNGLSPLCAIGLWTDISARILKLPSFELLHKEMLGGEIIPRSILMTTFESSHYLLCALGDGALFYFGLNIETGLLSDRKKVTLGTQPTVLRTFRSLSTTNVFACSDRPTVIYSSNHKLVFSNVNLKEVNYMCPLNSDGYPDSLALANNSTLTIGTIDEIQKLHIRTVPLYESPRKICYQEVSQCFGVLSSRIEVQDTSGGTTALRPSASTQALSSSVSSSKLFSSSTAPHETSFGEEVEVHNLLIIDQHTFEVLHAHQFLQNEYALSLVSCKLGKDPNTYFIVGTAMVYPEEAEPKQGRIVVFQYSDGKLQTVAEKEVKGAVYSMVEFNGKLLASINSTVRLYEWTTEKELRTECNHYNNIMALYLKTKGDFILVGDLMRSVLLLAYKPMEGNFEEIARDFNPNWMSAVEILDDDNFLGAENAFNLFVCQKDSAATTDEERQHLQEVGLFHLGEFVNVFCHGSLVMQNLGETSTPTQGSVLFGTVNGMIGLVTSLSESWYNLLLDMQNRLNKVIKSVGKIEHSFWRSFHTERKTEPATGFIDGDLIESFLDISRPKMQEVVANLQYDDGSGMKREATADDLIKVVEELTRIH
T5 sequence (Q96SW2 whole entry): as the sequence (Q96SW2 whole entry) above
T2 sequence (Q9UKS7 whole entry): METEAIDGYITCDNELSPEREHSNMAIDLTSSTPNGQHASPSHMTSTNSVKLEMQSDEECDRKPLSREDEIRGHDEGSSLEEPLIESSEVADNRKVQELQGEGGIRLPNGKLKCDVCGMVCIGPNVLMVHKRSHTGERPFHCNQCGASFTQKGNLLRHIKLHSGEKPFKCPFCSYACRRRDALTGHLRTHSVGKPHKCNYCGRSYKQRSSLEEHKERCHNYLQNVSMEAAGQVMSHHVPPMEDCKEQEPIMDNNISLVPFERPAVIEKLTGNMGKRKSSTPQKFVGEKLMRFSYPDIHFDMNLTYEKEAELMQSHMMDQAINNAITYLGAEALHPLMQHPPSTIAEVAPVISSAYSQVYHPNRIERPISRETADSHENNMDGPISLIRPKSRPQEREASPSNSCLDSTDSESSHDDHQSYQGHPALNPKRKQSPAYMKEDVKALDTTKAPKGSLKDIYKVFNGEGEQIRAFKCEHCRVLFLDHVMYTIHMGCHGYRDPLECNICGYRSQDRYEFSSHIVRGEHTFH
T2 sequence (Q96SW2 whole entry): as the sequence (Q96SW2 whole entry) above
T2 sequence (Q16531 whole entry partner): as the sequence (Q16531 whole entry partner) above
T1 sequence (P30291 whole entry): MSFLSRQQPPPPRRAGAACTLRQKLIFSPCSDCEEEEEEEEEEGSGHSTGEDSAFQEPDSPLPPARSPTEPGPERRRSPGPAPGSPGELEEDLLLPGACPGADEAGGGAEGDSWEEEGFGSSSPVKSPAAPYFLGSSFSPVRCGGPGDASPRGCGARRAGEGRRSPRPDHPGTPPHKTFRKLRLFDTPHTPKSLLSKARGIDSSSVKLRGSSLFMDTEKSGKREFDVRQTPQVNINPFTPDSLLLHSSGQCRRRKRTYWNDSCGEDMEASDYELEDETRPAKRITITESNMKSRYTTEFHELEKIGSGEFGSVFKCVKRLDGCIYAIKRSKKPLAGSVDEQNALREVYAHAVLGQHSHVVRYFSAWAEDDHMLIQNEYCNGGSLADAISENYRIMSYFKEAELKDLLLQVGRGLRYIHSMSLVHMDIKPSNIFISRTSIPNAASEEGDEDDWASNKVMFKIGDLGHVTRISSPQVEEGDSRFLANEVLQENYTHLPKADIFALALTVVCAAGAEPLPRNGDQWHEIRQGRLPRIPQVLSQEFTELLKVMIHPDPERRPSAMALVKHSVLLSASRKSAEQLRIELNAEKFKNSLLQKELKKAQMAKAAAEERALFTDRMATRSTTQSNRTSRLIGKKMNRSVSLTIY
T1 sequence (Q96SW2 whole entry): as the sequence (Q96SW2 whole entry) above
T1 sequence (Q16531 whole entry partner): as the sequence (Q16531 whole entry partner) above
T7 sequence (Q13422 whole entry): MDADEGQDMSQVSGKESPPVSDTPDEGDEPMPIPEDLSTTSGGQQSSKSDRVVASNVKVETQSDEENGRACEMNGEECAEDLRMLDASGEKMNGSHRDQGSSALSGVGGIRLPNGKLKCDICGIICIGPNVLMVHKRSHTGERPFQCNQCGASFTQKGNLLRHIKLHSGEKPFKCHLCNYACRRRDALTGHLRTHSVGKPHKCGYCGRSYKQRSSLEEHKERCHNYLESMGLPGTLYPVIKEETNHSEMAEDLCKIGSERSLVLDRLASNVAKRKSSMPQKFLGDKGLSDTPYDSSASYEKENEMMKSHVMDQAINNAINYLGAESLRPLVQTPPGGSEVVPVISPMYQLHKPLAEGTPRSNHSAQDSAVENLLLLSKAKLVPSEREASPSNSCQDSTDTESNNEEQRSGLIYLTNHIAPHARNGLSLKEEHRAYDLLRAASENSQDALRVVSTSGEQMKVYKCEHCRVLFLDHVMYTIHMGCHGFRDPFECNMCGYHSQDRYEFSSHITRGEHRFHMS
T7 sequence (Q96SW2 whole entry): as the sequence (Q96SW2 whole entry) above
T7 sequence (Q16531 whole entry partner): as the sequence (Q16531 whole entry partner) above
T3 sequence (P48729 whole entry): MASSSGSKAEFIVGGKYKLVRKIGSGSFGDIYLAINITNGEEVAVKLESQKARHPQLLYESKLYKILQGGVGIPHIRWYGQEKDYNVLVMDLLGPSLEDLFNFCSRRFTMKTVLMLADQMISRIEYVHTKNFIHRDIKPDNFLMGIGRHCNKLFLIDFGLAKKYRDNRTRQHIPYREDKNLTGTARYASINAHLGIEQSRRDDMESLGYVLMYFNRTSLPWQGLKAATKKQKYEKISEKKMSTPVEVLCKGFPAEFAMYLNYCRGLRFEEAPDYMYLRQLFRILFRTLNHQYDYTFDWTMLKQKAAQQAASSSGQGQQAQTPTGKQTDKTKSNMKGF
T3 sequence (Q96SW2 whole entry): as the sequence (Q96SW2 whole entry) above
T3 sequence (Q16531 whole entry partner): as the sequence (Q16531 whole entry partner) above

SMILES | substrate protein remaining % [1] | substrate protein remaining % [2] | substrate protein remaining % [3] | substrate protein remaining % [4] | IC50 [5] [nM] | substrate protein remaining % [6] | substrate protein remaining % [7] | IC50 [8] [nM]
CC1(C)CCC(CN2CC(Oc3ccc4c(c3)CN(C3CCC(=O)NC3=O)C4=O)C2)=C(c2ccc(F)cc2)C1 (stereo not shown) [GT-03459, 3-(5-((1-((4′-fluoro-5,5-dimethyl-3,4,5,6-tetrahydro-[1,1′-biphenyl]-2-yl)methyl)azetidin-3-yl)oxy)-1-oxoisoindolin-2-yl)piperidine-2,6-dione] | A (0%≤ substrate protein remaining % ≤80%) | A (0%≤ substrate protein remaining % ≤80%) | A (0%≤ substrate protein remaining % ≤80%) | A (0%≤ substrate protein remaining % ≤80%) | 500 to 1000 | A (0%≤ substrate protein remaining % ≤80%) | A (0%≤ substrate protein remaining % ≤80%) | 
O=C1CCC(N2Cc3cc(OC4CCNCC4)ccc3C2=O)C(=O)N1 (stereo not shown) [GT-03612, 3-(1-oxo-5-(piperidin-4-yloxy)isoindolin-2-yl)piperidine-2,6-dione] | A (0%≤ substrate protein remaining % ≤80%) | A (0%≤ substrate protein remaining % ≤80%) | A (0%≤ substrate protein remaining % ≤80%) | A (0%≤ substrate protein remaining % ≤80%) | 1000 to 1900 | A (0%≤ substrate protein remaining % ≤80%) | A (0%≤ substrate protein remaining % ≤80%) | 
O=C1CCC(N2Cc3cc(OC4CN(CC5=C(c6ccc(F)cc6)CCCC5)C4)ccc3C2=O)C(=O)N1 (stereo not shown) [GT-06302, 3-(5-((1-((4′-fluoro-3,4,5,6-tetrahydro-[1,1′-biphenyl]-2-yl)methyl)azetidin-3-yl)oxy)-1-oxoisoindolin-2-yl)piperidine-2,6-dione] | A (0%≤ substrate protein remaining % ≤80%) | A (0%≤ substrate protein remaining % ≤80%) | A (0%≤ substrate protein remaining % ≤80%) | A (0%≤ substrate protein remaining % ≤80%) | 500 to 1000 | A (0%≤ substrate protein remaining % ≤80%) | A (0%≤ substrate protein remaining % ≤80%) | 
O=C1CCC(N2Cc3cc(SC4CN(C(c5cccc(F)c5)c5cccc(F)c5)C4)ccc3C2=O)C(=O)N1 (stereo not shown) [GT-06349, 3-(5-((1-(bis(3-fluorophenyl)methyl)azetidin-3-yl)thio)-1-oxoisoindolin-2-yl)piperidine-2,6-dione] |  | A (0%≤ substrate protein remaining % ≤80%) | A (0%≤ substrate protein remaining % ≤80%) | A (0%≤ substrate protein remaining % ≤80%) | 500 to 1000 | A (0%≤ substrate protein remaining % ≤80%) | A (0%≤ substrate protein remaining % ≤80%) | 
O=C1CCC(N2Cc3cc(SC4CN(Cc5cnc(-c6ccccc6)cn5)C4)ccc3C2=O)C(=O)N1 (stereo not shown) [GT-06350, 3-(1-oxo-5-((1-((5-phenylpyrazin-2-yl)methyl)azetidin-3-yl)thio)isoindolin-2-yl)piperidine-2,6-dione] |  | A (0%≤ substrate protein remaining % ≤80%) | A (0%≤ substrate protein remaining % ≤80%) | A (0%≤ substrate protein remaining % ≤80%) | < 500 | A (0%≤ substrate protein remaining % ≤80%) | A (0%≤ substrate protein remaining % ≤80%) | 
O=C1CCC(N2Cc3cc(SC4CN(CC5=C(c6ccc(Cl)cc6)CCOC5)C4)ccc3C2=O)C(=O)N1 (stereo not shown) [GT-06351, 3-(5-((1-((4-(4-chlorophenyl)-5,6-dihydro-2H-pyran-3-yl)methyl)azetidin-3-yl)thio)-1-oxoisoindolin-2-yl)piperidine-2,6-dione] |  | A (0%≤ substrate protein remaining % ≤80%) | A (0%≤ substrate protein remaining % ≤80%) | A (0%≤ substrate protein remaining % ≤80%) | < 500 | A (0%≤ substrate protein remaining % ≤80%) | A (0%≤ substrate protein remaining % ≤80%) | 
O=C1CCC(N2Cc3cc(SC4CCCN(C(c5ccccc5)c5ccccc5)CC4)ccc3C2=O)C(=O)N1 (stereo not shown) [GT-06645, 3-(5-((1-benzhydrylazepan-4-yl)thio)-1-oxoisoindolin-2-yl)piperidine-2,6-dione] |  |  |  | A (0%≤ substrate protein remaining % ≤80%) | < 500 |  |  | 500 to 1000
O=C1CCC(N2Cc3cc(OC4CN(Cc5ccc(-c6ccncc6)nc5)C4)ccc3C2=O)C(=O)N1 (stereo not shown) [GT-06809, 3-(5-((1-([2,4′-bipyridin]-5-ylmethyl)azetidin-3-yl)oxy)-1-oxoisoindolin-2-yl)piperidine-2,6-dione] | A (0%≤ substrate protein remaining % ≤80%) | A (0%≤ substrate protein remaining % ≤80%) | A (0%≤ substrate protein remaining % ≤80%) | A (0%≤ substrate protein remaining % ≤80%) | 500 to 1000 | A (0%≤ substrate protein remaining % ≤80%) | A (0%≤ substrate protein remaining % ≤80%) | 
O=C1CCC(N2Cc3cc(OC4CCCN(C(c5ccccc5)c5ccccc5)CC4)ccc3C2=O)C(=O)N1 (stereo not shown) [GT-06928, 3-(5-((1-benzhydrylazepan-4-yl)oxy)-1-oxoisoindolin-2-yl)piperidine-2,6-dione] | A (0%≤ substrate protein remaining % ≤80%) | A (0%≤ substrate protein remaining % ≤80%) |  |  | 500 to 1000 |  |  | 10 to 50
O=C1CCC(N2Cc3cc(OC4CCCN(C(=O)c5ccccc5-c5ccc(Cl)cc5)CC4)ccc3C2=O)C(=O)N1 (stereo not shown) [GT-06935, 3-(5-((1-(4′-chloro-[1,1′-biphenyl]-2-carbonyl)azepan-4-yl)oxy)-1-oxoisoindolin-2-yl)piperidine-2,6-dione] | A (0%≤ substrate protein remaining % ≤80%) |  | A (0%≤ substrate protein remaining % ≤80%) | A (0%≤ substrate protein remaining % ≤80%) | < 500 |  |  | 100 to 500
CC1(C)CCC(CN2CCC(Sc3ccc4c(c3)CN(C3CCC(=O)NC3=O)C4=O)C(F)(F)C2)=C(c2ccc(Cl)cc2)C1 (stereo not shown) [GT-06960, 3-(5-((1-((4′-chloro-5,5-dimethyl-3,4,5,6-tetrahydro-[1,1′-biphenyl]-2-yl)methyl)-3,3-difluoropiperidin-4-yl)thio)-1-oxoisoindolin-2-yl)piperidine-2,6-dione] | A (0%≤ substrate protein remaining % ≤80%) |  | A (0%≤ substrate protein remaining % ≤80%) | A (0%≤ substrate protein remaining % ≤80%) |  |  |  | 500 to 1000
CC1(C)CCC(C(=O)N2CCC3(CCC(Sc4ccc5c(c4)CN(C4CCC(=O)NC4=O)C5=O)CC3)CC2)=C(c2ccc(Cl)cc2)C1 (stereo not shown) [GT-07016, 3-(5-((3-(4′-chloro-5,5-dimethyl-3,4,5,6-tetrahydro-[1,1′-biphenyl]-2-carbonyl)-3-azaspiro[5.5]undecan-9-yl)thio)-1-oxoisoindolin-2-yl)piperidine-2,6-dione] |  |  |  |  | 1000 to 1900 |  |  | 500 to 1000
